Values quoted from earlier work as cited in article PMC6331757, “Optimization of a peptide extraction and LC–MS protocol for quantitative analysis of antimicrobial peptides” (Future Science OA, 2018).

Test system: Gram-negative (e.g., Pseudomonas aeruginosa and Escherichia coli) and Gram-positive (e.g., Staphylococcus aureus) bacteria
Settings: qualitative statement

Sequence: VRLIVAVRIWRR [AMP 1018, synthetic antimicrobial peptide 1018 (…); also used as internal standard]
- antibacterial activity (kills bacteria, disperses biofilms, inhibits bacterial swarming): potent antibacterial
